Patent US12492236B2, “Fusion proteins for the treatment of cardiometabolic diseases” (Shattuck Labs, Inc., priority 2022, dated 2025)
Entries after “also recorded” stand apart in the source; their conditions may differ. Where no end group is shown, it is not given here.

Legend:
GIPR = target: T1, GIPR (Rattus norvegicus, UniProt P43219); experiment: pGloSensor-22F cAMP biosensor assay for GIPR agonism and antagonism in rat INS-1 cells; type: cell-based; design: dose or concentration left out as unconfirmed; details: mixed with GIP(Ag)
T1 construct: endogenous in cells; host or cells: rat INS-1 insulinoma cells (with cAMP-luciferase reporter / pGloSensor-22F biosensor)
T1 sequence (P43219 19-455): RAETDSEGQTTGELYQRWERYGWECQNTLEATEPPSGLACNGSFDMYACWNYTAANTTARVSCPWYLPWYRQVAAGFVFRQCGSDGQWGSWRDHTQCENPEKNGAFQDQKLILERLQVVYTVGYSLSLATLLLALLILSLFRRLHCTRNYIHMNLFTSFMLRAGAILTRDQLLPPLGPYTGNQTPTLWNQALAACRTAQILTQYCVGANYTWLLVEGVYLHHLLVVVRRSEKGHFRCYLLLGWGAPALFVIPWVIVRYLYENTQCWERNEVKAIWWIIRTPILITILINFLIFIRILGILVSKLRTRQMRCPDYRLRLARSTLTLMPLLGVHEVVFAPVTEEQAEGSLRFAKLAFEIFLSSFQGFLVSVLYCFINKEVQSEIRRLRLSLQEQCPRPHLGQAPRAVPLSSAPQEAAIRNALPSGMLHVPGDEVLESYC
Description: A series of GIP antagonist peptides were evaluated at blocking human GIP (hGIP) agonism and the induction of cAMP. Briefly, rat INS-1 cells having pGloSensor-22F (Promega) were constructed and used to evaluate GIPR agonism and antagonism. […] The conformational change leads to the activation of the luciferase enzyme, thereby allowing detection of activation of GIPR, which produces cAMP upon activation.
To assay for GIPR agonism, rat INS-1 cells having pGloSensor-22F biosensor were treated with increasing concentrations of GIP(Ag). Immediately after the addition, the luminescence of the cells was measured, normalized using the basal luminescence and plotted.
GIPR antagonism was measured as the inhibition of GIP(Ag)-induced activation of the cAMP-luciferase reporter gene in rat INS-1 cells having pGloSensor-22F biosensor. The following GIP derivatives accessed in this assay for GIPR antagonism: GIP(Ant 3-30), GIP(Ant 3-30NH2), (GIP(Ant 3-30) having amidated carboxy terminus), GIP(AntPro3), GIP(AntPro3NH2), GIP(Ant3-30, Pro3) and GIP(Ant3-30, Pro3NH2). Briefly, rat INS-1 cells having pGloSensor-22F were treated with increasing doses of the above various GIP derivatives, mixed with […] GIP(Ag). Immediately after the addition, the luminescence of the cells was measured, normalized using the basal luminescence and plotted.
The GIP(Ag) was re-evaluated across a broader concentration range. Rat INS-1 cells having pGloSensor-22F biosensor were treated with increasing concentrations of GIP(Ag). Immediately after the addition, the luminescence of the cells was measured, normalized using the basal luminescence and plotted.
The GIP(AntPro3) and GIP(AntPro3NH2) were re-evaluated across a broader concentration range. Briefly, rat INS-1 cells having pGloSensor-22F were treated with increasing doses of GIP(AntPro3) and GIP(AntPro3NH2), mixed with […] GIP(Ag). Immediately after the addition, the luminescence of the cells was measured, normalized using the basal luminescence and plotted.

[1] = test system: HFD-fed mice (Male C57BL/6); experiment: glucose tolerance test (GTT) model in HFD-fed mice; type: in vivo; details: for serum insulin time course following glucose administration: FIG. 7C; for serum glucose time course following glucose administration: i.v. treatment, 18 hours fast, 2 g/kg glucose, versus PBS control (200 to about 800 mg/dl), FIG. 7A
Description: Cages were changed once, then changed once a week.
The mice administered the above treatment by i.v. injections. The mice were then fasted for 18 hours and administered a dose of 2 g/kg glucose by i.v. injections. Blood samples were drawn by tail clip bleeding at 15, 30 and 60 minutes post dosing and cardiac bleeding was used at 2 hours after glucose injection as end-point.

[2] = test system: HFD-fed mice (Male C57BL/6); experiment: longer-term obesity model in HFD-fed mice; details: for blood glucose levels: Days 0, 1, 10 and 15, compared to the untreated mice, FIG. 8E; for liver histology: hepatocellular ballooning and steatosis: H&E; for plasma insulin levels on Day 1: between 15 and 120 minutes after treatment, one way ANOVA p<0.05, FIG. 8C left panel; for average daily food intake: compared to the untreated mice, FIG. 8D; for liver weight: livers of PBS control mice versus treated mice / subcutaneous white adipose tissue (sWAT) weight: day 19 necropsy; for liver weight: livers of PBS control mice versus treated mice: FIG. 8G; for subcutaneous white adipose tissue (sWAT) weight: versus PBS control, FIG. 8H; for tolerability: obesity model; for plasma insulin levels on Day 15: one way ANOVA p<0.0001, FIG. 8C right panel; for change in body weight: tail vein dosing Day 0, 4, 7, 10, 14, 18, FIG. 8A
From the text: Briefly, mice (Male C57BL/6) were of approximately 13 weeks of age were housed 4 mice per cage. Following 2 weeks of acclimation, mice were introduced to 60% kcal HFD (Research Diets D12492). Cages were changed once, then changed once a week. Weekly body weights and non-fasted blood glucose were collected. […] The longer-term obesity model assesses a number of end points associated with obesity related type 2 diabetes (FIG. 6A).
Mice (Male C57BL/6) were of approximately 13 weeks of age were housed 4 mice per cage. Following 2 weeks of acclimatation, mice were introduced to 60% kcal HFD (Research Diets D12492). Cages were changed once, then changed once a week. Weekly body weights and non-fasted blood glucose were collected.
Mice were injected by tail vein with vehicle or the drugs on Day 0, Day 4, Day 7, Day 10, Day 14, and Day 18. Body weights were measured every 2 days. Change in body weight was calculated and plotted.
Cumulative food intake was measured between day 0 and 3, between day 4 and 7, between day 7 and day 11, and between day 11 and day 14, and represented as average daily food intake. For food consumption, remaining food was weighed on days 3, 8, and 15, and subtracted from the starting weight. This value was then normalized to the number of mice in the cage, and the number of days the mice had access to the food prior to weighing.
Blood glucose levels were measured on Days 0, 1, 10 and 15 and plotted.
On day 19 during terminal necropsy, liver and subcutaneous white adipose tissue were recovered weighed from treated animals.
To further analyze the changes in liver, histopathological analysis was conducted. Briefly, the liver tissue was stained with hematoxylin and eosin (H&E) and evaluated using standard techniques.

GIP receptor (GIPR) = target: T2, GIP receptor (GIPR) (Rattus norvegicus, UniProt P43219); experiment: cAMP-Glo assay in rat insulinoma INS-1 cells harboring a cAMP-luciferase reporter gene; type: cell-based; details: 1 hour glucose, then 2 hour incubation, FIG. 4A
T2 construct: endogenous in cells; host or cells: rat INS-1 insulinoma cells (with cAMP-luciferase reporter / pGloSensor-22F biosensor)
T2 sequence (P43219 19-455): T1 sequence (P43219 19-455)
From the text: Rat insulinoma INS-1 cells harboring a cAMP-luciferase reporter gene were used to study the activation of GIPR. Without wishing to be bound by theory, the activation of GIPR leads to temporary depletion of ATP because of consumption of ATP in cyclization reaction to produce cAMP as well as by phosphorylation by protein kinase A of its substrate. Without wishing to be bound by theory, the temporary depletion of ATP leads to an inhibition of luciferase activity, which needs ATP as a substrate.

[3] = target: T3, glucose-dependent insulinotropic polypeptide receptor (GIPR) (Homo sapiens, UniProt P48546); experiment: GeneBLAzer GIPR-CRE-bla HEK293T cell-based reporter assay; details: increasing amounts, FIG. 3B
T3 construct: host or cells: HEK293T (GeneBLAzer GIPR-CRE-bla)
T3 sequence (P48546 22-466): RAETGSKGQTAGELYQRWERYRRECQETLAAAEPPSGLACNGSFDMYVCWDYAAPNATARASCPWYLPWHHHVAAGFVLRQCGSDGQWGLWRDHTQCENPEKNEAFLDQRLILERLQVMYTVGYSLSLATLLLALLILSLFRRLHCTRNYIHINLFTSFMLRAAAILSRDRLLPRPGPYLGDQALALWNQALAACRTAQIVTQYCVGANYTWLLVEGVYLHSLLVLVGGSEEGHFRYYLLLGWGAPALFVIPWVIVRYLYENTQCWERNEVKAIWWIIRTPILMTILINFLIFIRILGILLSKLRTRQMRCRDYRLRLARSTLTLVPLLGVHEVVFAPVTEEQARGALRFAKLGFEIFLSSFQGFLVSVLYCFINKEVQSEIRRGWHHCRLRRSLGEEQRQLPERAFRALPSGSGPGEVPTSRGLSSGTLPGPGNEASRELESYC
Description: This assay is diagrammatically represented in FIG. 3A. […] In the presence of the β-lactamase LiveBLAzer™ substrate, cells expressing β-lactamase fluoresce blue (460 nm), while those not expressing β-lactamase fluoresce green (530 nm); higher 460/530 ratio indicates the activation of GIPR.
Briefly, GeneBLAzer® GIPR-CRE-bla HEK293T cells were added to wells of black-wall assay plates. […] To each well, LiverBLAzer-FRET B/G substrate mixture was added. The plate was covered with plate sealer and incubated at room temperature for 2 hours in the dark. Fluorescence emission was measured on SpectraMax plate reader at 460 nm and 530 nm with excitation set to 409 nm. After subtraction of background, average value at 460 nm (blue color) was divided by average value at 530 nm (green color) to obtain the 460/530 ratio.

[4] = broader concentration range, FIG. 5B

Substance | inhibition of GIP(Ag)-induced activation of the cAMP-luciferase reporter gene (GIPR antagonism) (GIPR; [4]) | inhibition of GIP(Ag)-induced activation of the cAMP-luciferase reporter gene (GIPR antagonism) (GIPR; FIG. 5A) | serum insulin time course following glucose administration [1] | serum glucose time course following glucose administration [1] | glucose tolerance ([1]; summary of GTT model) | blood glucose levels [2] | weights of individual mice ([2]; FIG. 8B) | liver histology: hepatocellular ballooning and steatosis ([2]; FIG. 8J) | plasma insulin levels on Day 1 [2] | average daily food intake [2] | liver weight: livers of PBS control mice versus treated mice [2] | subcutaneous white adipose tissue (sWAT) weight [2] | tolerability [2] | plasma insulin levels on Day 15 [2] | decrease in liver collagen staining relative to tirzepatide or dulaglutide ([2]; picrosirius red, FIG. 8I) | liver collagen staining (fibrosis) ([2]; picrosirius red, FIG. 8I) | change in body weight [2] | inhibition of luciferase (GIPR activation, cAMP accumulation) (GIP receptor (GIPR)) | 460/530 ratio, indicative of the activation of GIPR [3] | liver histology: hepatocellular ballooning and steatosis ([2]; higher magnifications, compared to untreated animals, FIG. 8K)
GIP(AntPro3): GIP antagonist peptide, SEQ ID NO: 97 (YAPGTFISDYSIAMDKIHQQDFVNWLLAQKGKKNDWKHNITQ) | dose-dependent inhibition of GIP(Ag)-induced activation | more potent inhibition of GIP agonist signaling than the others tested; also recorded: maximal level of a dose-dependent inhibition of GIP(Ag)-induced activation |  |  |  |  |  |  |  |  |  |  |  |  |  |  |  |  |  | 
GIP(AntPro3NH2): GIP antagonist peptide GIP(AntPro3), presumably having amidated carboxy terminus (YAPGTFISDYSIAMDKIHQQDFVNWLLAQKGKKNDWKHNITQ-NH2) | dose-dependent inhibition of GIP(Ag)-induced activation | more potent inhibition of GIP agonist signaling than the others tested; also recorded: maximal level of a dose-dependent inhibition of GIP(Ag)-induced activation |  |  |  |  |  |  |  |  |  |  |  |  |  |  |  |  |  | 
GLP-1-Fc-GIP(AntPro3): GLP-1 fused to GIP antagonist peptide (amino acids 1-42 having E3P mutation) via IgG1 hinge-CH2-CH3 Fc domain; SEQ ID NO: 95 |  |  | rapid induction of insulin | much smaller increase in serum glucose | improved glucose tolerance | decrease in blood glucose | induced weight loss | a decrease in hepatocellular ballooning and steatosis | rapid decrease in insulin levels | decrease in food intake | much heavier compared to the mice receiving treatments | decreased | well tolerated and no overt toxicities were noted | significant decrease in the levels of insulin | greater decrease in collagen staining | a decrease in collagen staining | progressive weight loss |  |  | 
dulaglutide [reference compound] |  |  |  |  |  | decrease in blood glucose |  | a decrease in hepatocellular ballooning and steatosis | rapid decrease in insulin levels | decrease in food intake | much heavier compared to the mice receiving treatments | decreased | well tolerated and no overt toxicities were noted | significant decrease in the levels of insulin |  | a decrease in collagen staining | progressive weight loss |  |  | 
tirzepatide [reference compound] |  |  | rapid induction of insulin | much smaller increase in serum glucose |  | decrease in blood glucose |  | a decrease in hepatocellular ballooning and steatosis |  | decrease in food intake | much heavier compared to the mice receiving treatments | decreased |  | significant decrease in the levels of insulin |  | a decrease in collagen staining | progressive weight loss | dose-dependent and saturable inhibition of luciferase with similar potency | dose-dependent and saturable increase in 460/530 ratio | significant decrease in hepatocellular ballooning and steatosis
